# Reference: PMC12085125 (Drug Design, Development and Therapy, 2025)
# How the values were obtained:
# [1] = healthy male adults; cited from earlier work
# [2] = tested on: tofacitinib metabolism in rat liver microsomes (enzyme not specified); experiment: Inhibition of tofacitinib metabolism in rat liver microsomes; type: in vitro ADME; settings: probe tofacitinib
# [3] = cited from earlier work
# [4] = tested on: rat liver microsomes; settings: metabolism to M8, n=3
# [5] = tested on: cytochrome P450 3A4 (CYP3A4); settings: cited from earlier work
# [6] = tested on: cytochrome P450 2C19 (CYP2C19); settings: cited from earlier work
# [7] = in vitro; settings: Sprague-Dawley, rat, liver microsomes
Structure (SMILES),increase of AUC of tofacitinib when combined [1],increase of Cmax of tofacitinib when combined [1],IC50 at 30 min [2],other results
OC(Cn1cncn1)(Cn1cncn1)c1ccc(F)cc1F [Fluconazole],79%,27%,,
COc1ccc2c(c1)C(=O)N(CCc1ccc(S(=O)(=O)NC(=O)NC3CCCCC3)cc1)C(=O)C2(C)C [Gliquidone],,,1140 nM,half-life ([3]; after oral administration): approximately 1.5 hours
CC(=O)N1CCN(c2ccc(OCC3COC(Cn4ccnc4)(c4ccc(Cl)cc4Cl)O3)cc2)CC1 (stereo not drawn) [Ketoconazole],103%,16%,,
CC#CCn1c(N2CCC[C@@H](N)C2)nc2c1c(=O)n(Cc1nc(C)c3ccccc3n1)c(=O)n2C [Linagliptin],,,4060 nM,bioavailability [3]: approximately 30%
C[C@@H]1CCN(C(=O)CC#N)C[C@@H]1N(C)c1ncnc2[nH]ccc12 [Tofacitinib],,,,Vmax of tofacitinib enzyme kinetics [4]: 5.482 pmol/min/mg; share processed by CYP3A4 [5]: approximately 50%; share processed by CYP2C19 [6]: ~20%; Km at 30 min [7]: 37.3 µM
